From patent US20230295130A1, “COMPOUND USEFUL AS CDK7 KINASE INHIBITOR AND USE THEREOF” (TYK MEDICINES, INC., priority 2020, published 2023)
pIC50: −log10 of the molar value.

What was measured:
[1] = target: CDK7/Cyclin H/MAT1 kinase (Homo sapiens (Human), UniProt P50613); assay: Enzyme activity test, mobility shift assay (Table 3); format: biochemical; conditions: 2 mM ATP, pre-incubated 0 and 60 minutes
Description: IC50 values of the compounds for CDK7 kinase were detected in Wuxi Biortus Biosciences Co. Ltd.
The compound powder was dissolved in 100% DMSO to prepare a 10 mM storage solution. The storage solution was further diluted to 0.5 mM as the initial concentration, and continuously diluted 3 times to obtain 10 compound solutions with different concentrations. The compound and enzyme were pre-incubated for 0 minutes and 60 minutes, respectively, using duplicate detection.
was used as a positive control, using Mobility shift say method, to detect CDK kinase (such as CDK7, CDK9, CDK12 and CDK2) activity of the compound.

[2] = tested on: colorectal cancer cells HCT-116; assay: Cell anti-proliferation experiment, MTT (Table 4); format: cell-based, human; conditions: incubate 3 days
Excerpt: (§1) Human breast cancer cells MDA-MB 231, MDA-MB453, ovarian cancer cells OVCAR3, colorectal cancer cells HCT-116 and lung cancer cells NCI-H209 were purchased from BNCC. DMEM medium (Bio-Channel), DMSO (dimethyl sulfoxide), MTT (thiazole blue), 0.25% EDTA-Tripsin (pancreatin digestive juice), 1×PBS (phosphate buffer, PH7.2), 96-well plate (Corning), fetal bovine serum (FBS), 10,000 U/mL penicillin-G/streptomycin, high-speed freezing centrifuge (EPPENDORF 5810R), enzyme-linked immunosorbent assay (Tecan Spark).
(§2) • A) Tumor cells were cultured to 80-90% density in DMEM (high sugar, containing 10% FBS and 100 U/mL penicillin-G/streptomycin) at 37° C., 5% CO2 and saturated humidity. • B) The culture medium was removed from the 10 cm culture dish. • C) Cells were washed with 10 ml 1×PBS. • D) 4 ml of 0.25% EDTA-Tripsin was added to an incubator to digest pancreatin for 5 minutes at 37° C. and 5% CO2, transferred to a 15 ml centrifuge tube, centrifuged for 5 minutes at 200 g, and supernatant was discarded to obtain cell precipitation. • E) The cell precipitation was resuspended with 4 ml DMEM medium, counted and adjusted to 50,000 cells/ml. • F) Cell suspension was added to a 96-well plate with a volume of 100 μL per well and cultured overnight in a 5% CO2 incubator at 37° C.
(§3) • A) Preparing the tested compound gradient dilution solution: TY 2600 1 mM, TY 2601 1 mM, TY-2648a 1 mM, TY-2648b 1 mM and TY-2650 1 mM storage solutions were prepared. Then 1.5 μl of storage solution was dissolved in 1.5 ml of DMSO-free culture solution, and then performed 3-fold continuous gradient dilution with 0.1% DMSO culture solution for a total of 9 concentrations. The concentrations of the diluted compound were as follows: • 333.33 nM, 111.11 nM, 37.03 nM, 12.35 nM, 4.15 nM, 1.37 nM, 0.46 nM, 0.15 nM • B) After full mixing, 100 μL of culture compound solution was taken to replace the culture solution in the cell culture plate, with 4 duplicated wells at each concentration; • C) The cells were transferred to incubator to incubate for 3 days.
(§4) • A) The cell culture plate was taken out and added with 5 mg/ml MTT 10 μL in the biosafety cabinet; • B) The cell culture plate was put back into the incubator and continued to incubate for 3 hours; • C) The cell culture plate was taken out to remove the culture solution, 100 μL isopropanol (containing 0.4 mM HCl, 0.1% NP-40) was added, shaking at room temperature for 30 minutes; • D) The absorbance value was measured at 570 nm on TECAN enzyme linked immunosorbent assay.

[3] = tested on: ovarian cancer cells OVCAR3; assay: Cell anti-proliferation experiment, MTT (Table 4); format: cell-based, human; conditions: incubate 3 days
Excerpt: as §1, §2, §3, §4

[4] = tested on: breast cancer cells MDA-MB453; assay: Cell anti-proliferation experiment, MTT (Table 4); format: cell-based, human; conditions: incubate 3 days
Excerpt: as §1, §2, §3, §4

[5] = tested on: breast cancer cells MDA-MB 231; assay: Cell anti-proliferation experiment, MTT (Table 4); format: cell-based, human; conditions: incubate 3 days
Excerpt: as §1, §2, §3, §4

CDK7/Cyclin H/MAT1 kinase, sequence (P50613 whole entry): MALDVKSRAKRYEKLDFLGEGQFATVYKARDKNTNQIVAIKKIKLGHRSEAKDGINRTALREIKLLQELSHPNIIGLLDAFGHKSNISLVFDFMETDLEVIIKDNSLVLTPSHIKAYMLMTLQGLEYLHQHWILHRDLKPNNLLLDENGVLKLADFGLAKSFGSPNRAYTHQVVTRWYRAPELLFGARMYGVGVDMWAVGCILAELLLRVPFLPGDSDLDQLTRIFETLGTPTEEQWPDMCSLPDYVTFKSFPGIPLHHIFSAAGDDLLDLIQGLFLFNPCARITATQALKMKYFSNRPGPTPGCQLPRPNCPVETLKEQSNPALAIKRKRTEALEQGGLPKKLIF
CDK7/Cyclin H/MAT1 kinase, sequence (P51946 whole entry partner): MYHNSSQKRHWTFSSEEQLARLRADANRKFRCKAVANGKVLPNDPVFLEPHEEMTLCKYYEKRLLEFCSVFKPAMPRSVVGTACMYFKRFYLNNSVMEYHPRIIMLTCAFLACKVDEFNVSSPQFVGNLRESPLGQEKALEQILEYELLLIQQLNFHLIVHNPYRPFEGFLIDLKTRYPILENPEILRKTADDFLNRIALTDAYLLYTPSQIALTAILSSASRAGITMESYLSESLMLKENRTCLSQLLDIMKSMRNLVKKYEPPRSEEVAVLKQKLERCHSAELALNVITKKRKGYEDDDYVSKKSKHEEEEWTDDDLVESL
CDK7/Cyclin H/MAT1 kinase, sequence (P51948 whole entry partner): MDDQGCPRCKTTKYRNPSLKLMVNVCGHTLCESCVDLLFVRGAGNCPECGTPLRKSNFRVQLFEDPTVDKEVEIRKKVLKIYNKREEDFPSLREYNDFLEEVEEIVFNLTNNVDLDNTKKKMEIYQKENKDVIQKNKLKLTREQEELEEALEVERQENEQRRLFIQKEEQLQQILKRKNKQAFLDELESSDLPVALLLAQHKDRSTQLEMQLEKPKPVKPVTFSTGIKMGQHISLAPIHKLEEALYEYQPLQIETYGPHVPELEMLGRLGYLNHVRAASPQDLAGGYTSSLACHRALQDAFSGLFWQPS

pIC50 [1] | IC50 ([2]; Homo sapiens, HCT-116, 72 h) [nM] | IC50 ([3]; Homo sapiens, OVCAR-3, 72 h) [nM] | IC50 ([4]; Homo sapiens, MDA-MB-453, 72 h) [nM] | IC50 ([5]; Homo sapiens, MDA-MB-231, 72 h) [nM] | IC50 [2] [nM] | IC50 [3] [nM] | IC50 [4] [nM] | IC50 [5] [nM] | Compound
> 8.00 | 10 to 500 | 10 to 500 | 10 to 500 | 10 to 500 | – | – | – | – | CC1(C)CC[C@H](Nc2ncc(C(F)(F)F)c(-c3c[nH]c4c(P5(=O)CCCC5)c(C#N)ccc34)n2)CN1 [Example 01]
> 8.00 | – | – | – | – | 10 to 500 | 10 to 500 | 10 to 500 | 10 to 500 | CC1(C)CC[C@H](Nc2ncc(C(F)(F)F)c(-n3cnc4c(P(C)(C)=O)c(C#N)ccc43)n2)CN1 [Example 31]
> 8.00 | 10 to 500 | 10 to 500 | 10 to 500 | 10 to 500 | – | – | – | – | CP(C)(=O)c1c(C#N)ccc2c(-c3nc(N[C@H]4CCC(=O)NC4)ncc3C(F)(F)F)c[nH]c12 [Example 48]
> 8.00 | 10 to 500 | 10 to 500 | 10 to 500 | 10 to 500 | – | – | – | – | COC(=O)Nc1ccc2c(-c3nc(N[C@H]4CCC(C)(C)NC4)ncc3C(F)(F)F)c[nH]c2c1P1(=O)CCCC1 [Example 20]
